Experimental data reported in DBAASP.
In brackets after ≈: the same amount, converted by molar mass. Several values for one entry are separate records, joined by “and”; a condition that tells them apart may be missing. Identical values can stand only once.

What was measured:
Assay in all cases: ≥ marks a high value that may be exact or a test limit, other limits are often not marked, values filed in µg/mL are converted to µM
[1] = test system: Staphylococcus aureus ATCC 43300
[2] = test system: Pseudomonas aeruginosa ATCC 14502
[3] = test system: Micrococcus luteus ATCC 49732
[4] = test system: Staphylococcus aureus ATCC 6538
Micrococcus luteus A270 = test system: Micrococcus luteus A270
Escherichia coli SBS 363 = test system: Escherichia coli SBS 363
[5] = test system: Escherichia coli ATCC 25922
[6] = test system: Staphylococcus aureus ATCC 12600
[7] = test system: Escherichia coli ATCC 11775
Pseudomonas aeruginosa = test system: Pseudomonas aeruginosa
Escherichia coli UB1005 = test system: Escherichia coli UB1005
[8] = test system: Staphylococcus aureus C623
[9] = test system: Aeromonas salmonicida 97-4
[10] = test system: Staphylococcus aureus CCARM 3089
[11] = test system: Staphylococcus aureus CCARM 3126
[12] = test system: Staphylococcus aureus CCARM 3090
[13] = test system: Staphylococcus aureus KCTC 1621
[14] = test system: Candida albicans KCTC 7270
Candida albicans C627 = test system: Candida albicans C627
[15] = test system: Escherichia coli KCTC 1682
[16] = test system: Aeromonas salmonicida 99-1
[17] = test system: Pseudomonas aeruginosa K799
[18] = test system: Pseudomonas aeruginosa KCTC 1637
[19] = test system: Salmonella enterica subsp. enterica serovar Typhimurium ATCC 14028s
[20] = test system: Salmonella enterica serovar typhimurium MS7953s
[21] = test system: Staphylococcus aureus CCARM 3114
[22] = test system: Escherichia coli CCARM 1229
[23] = test system: Staphylococcus aureus CCARM 3108
[24] = test system: Salmonella typhimurium CCARM 8009
[25] = test system: Escherichia coli CGSC 4908
[26] = test system: Pseudomonas aeruginosa Z61
[27] = test system: Salmonella typhimurium CCARM 8007
[28] = test system: Salmonella typhimurium CCARM 8013
Escherichia coli DC2 = test system: Escherichia coli DC2
[29] = test system: Staphylococcus epidermidis C621
[30] = test system: Escherichia coli CCARM 1238
[31] = test system: Candida albicans CCARM 14001
Staphylococcus aureus = test system: Staphylococcus aureus
[32] = test system: Salmonella typhimurium KCTC 1926
[33] = test system: Trichosporon beigelii KCTC 7707
[34] = test system: Pseudomonas aeruginosa H188
[35] = test system: Enterococcus faecalis C625
Bacillus subtilis C971 = test system: Bacillus subtilis C971
[36] = test system: Salmonella typhimurium C610
[37] = test system: Pseudomonas aeruginosa H187
[38] = test system: Staphylococcus aureus SAP 0017
[39] = test system: Corynebacterium xerosis C875
[40] = test system: Staphylococcus aureus ATCC 25923
[41] = test system: Salmonella typhimurium C587
[42] = test system: Helicobacter pylori NCTC 11637
Shigella dysenteriae = test system: Shigella dysenteriae
Bacillus subtilis = test system: Bacillus subtilis
[43] = test system: Staphylococcus aureus ATCC 2592
[44] = test system: Candida albicans ATCC 2002

**Q.** Which results are given for `CC[C@H](C)[C@H](NC(=O)[C@H](C)NC(=O)[C@H](C)NC(=O)[C@H](CCC(=O)O)NC(=O)[C@H](CCCCN)NC(=O)CNC(=O)[C@@H](NC(=O)[C@H](CC(N)=O)NC(=O)[C@H](CCCCN)NC(=O)[C@@H](NC(=O)[C@@H](NC(=O)[C@H](CO)NC(=O)[C@H](Cc1c[nH]c2ccccc12)NC(=O)[C@H](CC(C)C)NC(=O)CN)[C@@H](C)O)[C@@H](C)CC)C(C)C)C(=O)N[C@@H](C)C(=O)N[C@@H](C)C(=O)NCC(=O)N[C@@H](CCCCN)C(=O)N[C@@H](C)C(=O)N[C@@H](C)C(=O)N[C@@H](CC(C)C)C(=O)NCC(=O)N[C@@H](C)C(=O)N[C@@H](CC(C)C)C(N)=O` [GLWSTIKNVGKEAAIAAGKAALGAL]?
**A.** MIC [1]: 26.5 µM (≈ 63.9 µg/mL); MIC [2]: 6 µM (≈ 14.5 µg/mL); MIC [3]: 0.8 µM (≈ 1.93 µg/mL); MIC [4]: 6 µM (≈ 14.5 µg/mL); MIC (Micrococcus luteus A270): 6 µM (≈ 14.5 µg/mL); MIC (Escherichia coli SBS 363): 6 µM (≈ 14.5 µg/mL); MIC [5]: 6.6 µM (≈ 15.9 µg/mL); MIC [6]: 0.4 µM (≈ 0.964 µg/mL); MIC [7]: 0.8 µM (≈ 1.93 µg/mL); MIC (Pseudomonas aeruginosa): 6.6 µM (≈ 15.9 µg/mL)

**Q.** For `CC[C@H](C)[C@H](NC(=O)[C@H](C)NC(=O)[C@H](C)NC(=O)[C@H](CCC(N)=O)NC(=O)CNC(=O)[C@H](CC(C)C)NC(=O)[C@H](Cc1cnc[nH]1)NC(=O)[C@H](CCCCN)NC(=O)[C@H](C)NC(=O)CNC(=O)[C@H](CCCCN)NC(=O)[C@H](CCCNC(=N)N)NC(=O)[C@H](CC(C)C)NC(=O)[C@H](Cc1c[nH]c2ccccc12)NC(=O)[C@H](CCCCN)NC(=O)[C@H](CCCCN)NC(=O)[C@H](Cc1c[nH]c2ccccc12)NC(=O)CN)C(=O)N[C@@H](CCCCN)C(C)=O` [GWKKWLRKGAKHLGQAAIK], which MIC (Escherichia coli UB1005) is on record?
**A.** 0.919 µM (≈ 2 µg/mL)

**Q.** What about the MIC [8] of the same compound?
**A.** 14.7 µM (≈ 32 µg/mL)

**Q.** And the MIC [9]?
**A.** 0.459 µM (≈ 0.999 µg/mL)

**Q.** And the MIC [10]?
**A.** 2 µM (≈ 4.35 µg/mL)

**Q.** What about the MIC [11] of the same compound?
**A.** 4 µM (≈ 8.7 µg/mL)

**Q.** What about the MIC [12] of the same compound?
**A.** 8 µM (≈ 17.4 µg/mL)

**Q.** And the MIC [13]?
**A.** 4 µM and 8 µM

**Q.** And the MIC [14]?
**A.** 8 µM and 16 µM

**Q.** And the MIC (Candida albicans C627)?
**A.** 3.68 µM (≈ 7.99 µg/mL)

**Q.** And the MIC [15]?
**A.** 2 µM and 4 µM

**Q.** And the MIC [16]?
**A.** 0.919 µM (≈ 2 µg/mL)

**Q.** And the MIC [17]?
**A.** 1.84 µM (≈ 4 µg/mL)

**Q.** What about the MIC [18] of the same compound?
**A.** 4 µM and 8 µM

**Q.** And the MIC [19]?
**A.** 7.35 µM (≈ 16 µg/mL)

**Q.** And the MIC [20]?
**A.** 0.23 µM (≈ 0.5 µg/mL)

**Q.** What about the MIC [21] of the same compound?
**A.** 4 µM (≈ 8.7 µg/mL)

**Q.** What about the MIC [22] of the same compound?
**A.** 8 µM (≈ 17.4 µg/mL)

**Q.** And the MIC [23]?
**A.** 2 µM (≈ 4.35 µg/mL)

**Q.** And the MIC [24]?
**A.** 16 µM (≈ 34.8 µg/mL)

**Q.** And the MIC [25]?
**A.** 0.459 µM (≈ 0.999 µg/mL)

**Q.** And the MIC [26]?
**A.** 0.459 µM (≈ 0.999 µg/mL)

**Q.** What about the MIC [27] of the same compound?
**A.** 4 µM (≈ 8.7 µg/mL)

**Q.** What about the MIC [28] of the same compound?
**A.** 4 µM (≈ 8.7 µg/mL)

**Q.** And the MIC (Escherichia coli DC2)?
**A.** 0.23 µM (≈ 0.5 µg/mL)

**Q.** What about the MIC [29] of the same compound?
**A.** 7.35 µM (≈ 16 µg/mL)

**Q.** And the MIC [30]?
**A.** 4 µM (≈ 8.7 µg/mL)

**Q.** And the MIC [31]?
**A.** 8 µM (≈ 17.4 µg/mL)

**Q.** What about the MIC (Pseudomonas aeruginosa) of the same compound?
**A.** 4 µM (≈ 8.7 µg/mL)

**Q.** What about the MIC (Staphylococcus aureus) of the same compound?
**A.** 2.83 µM (≈ 6.15 µg/mL)

**Q.** And the MIC [32]?
**A.** 1 µM and 2 µM

**Q.** What about the MIC [33] of the same compound?
**A.** 4 µM and 8 µM

**Q.** For `CC[C@H](C)[C@H](NC(=O)[C@H](C)NC(=O)[C@H](CCCCN)NC(=O)[C@H](CC(C)C)NC(=O)[C@H](C)NC(=O)[C@@H](NC(=O)[C@H](Cc1cnc[nH]1)NC(=O)[C@H](CC(C)C)NC(=O)[C@@H](NC(=O)[C@@H](NC(=O)[C@H](CCCCN)NC(=O)[C@@H](NC(=O)[C@H](C)NC(=O)[C@H](CC(C)C)NC(=O)[C@H](CCCCN)NC(=O)[C@H](Cc1ccccc1)NC(=O)[C@@H](NC(=O)[C@H](CCCCN)NC(=O)[C@H](CC(C)C)NC(=O)[C@H](Cc1ccccc1)NC(=O)[C@H](CO)NC(=O)[C@H](CCCCN)NC(=O)[C@H](Cc1c[nH]c2ccccc12)NC(=O)[C@H](CCCCN)NC(C)=O)[C@@H](C)O)C(C)C)[C@@H](C)O)C(C)C)[C@@H](C)O)C(=O)N[C@@H](CO)C(=O)N[C@@H](CO)C(N)=O` [KWKSFLKTFKLAVKTVLHTALKAISS], which MIC (Escherichia coli UB1005) is on record?
**A.** 5.43 µM (≈ 16.2 µg/mL)

**Q.** What about the MIC [34] of the same compound?
**A.** 10.9 µM (≈ 32.4 µg/mL)

**Q.** What about the MIC [35] of the same compound?
**A.** 17.2 µM (≈ 51.5 µg/mL)

**Q.** What about the MIC (Bacillus subtilis C971) of the same compound?
**A.** 1.7 µM (≈ 5.07 µg/mL)

**Q.** What about the MIC [36] of the same compound?
**A.** 4.31 µM (≈ 12.9 µg/mL)

**Q.** And the MIC [37]?
**A.** 6.86 µM (≈ 20.5 µg/mL)

**Q.** And the MIC [38]?
**A.** 10.9 µM (≈ 32.4 µg/mL)

**Q.** And the MIC [39]?
**A.** 0.848 µM (≈ 2.53 µg/mL)

**Q.** What about the MIC (Escherichia coli DC2) of the same compound?
**A.** 1.7 µM (≈ 5.07 µg/mL)

**Q.** What about the MIC [40] of the same compound?
**A.** 10.9 µM (≈ 32.4 µg/mL)

**Q.** And the MIC [29]?
**A.** 5.43 µM (≈ 16.2 µg/mL)

**Q.** What about the MIC [41] of the same compound?
**A.** 10.9 µM (≈ 32.4 µg/mL)

**Q.** For `CC[C@H](C)[C@H](NC(=O)[C@H](CCC(N)=O)NC(=O)[C@H](CCCCN)NC(=O)[C@H](Cc1c[nH]c2ccccc12)NC(=O)[C@H](CC(C)C)NC(=O)[C@H](CCC(N)=O)NC(=O)[C@@H]1CCCN1C(=O)[C@H](CC(C)C)NC(=O)[C@H](CCCCN)NC(=O)[C@H](C)NC(=O)[C@H](CCC(=O)O)NC(=O)[C@H](CCCCN)NC(=O)[C@@H](NC(=O)[C@H](CCSC)NC(=O)[C@@H](NC(=O)[C@@H](NC(=O)[C@@H](NC(=O)[C@@H](N)CO)[C@@H](C)CC)[C@@H](C)CC)[C@@H](C)O)[C@@H](C)O)C(=O)N[C@@H](C)C(=O)N[C@H]1CSSC[C@@H](C(=O)O)NC(=O)[C@H]([C@@H](C)O)NC(=O)[C@H](CC(N)=O)NC(=O)[C@H](Cc2ccc(O)cc2)NC(=O)[C@H](CC(C)C)NC(=O)[C@H](CCCN=C(N)N)NC1=O` [SIITMTKEAKLPQLWKQIACRLYNTC], which MIC [42] is on record?
**A.** 9.82 µM (≈ 30 µg/mL)

**Q.** What about the MIC (Shigella dysenteriae) of the same compound?
**A.** ≥ 39.3 µM

**Q.** And the MIC [5]?
**A.** 19.6 µM (≈ 60 µg/mL)

**Q.** What about the MIC (Bacillus subtilis) of the same compound?
**A.** ≥ 39.3 µM

**Q.** What about the MIC [43] of the same compound?
**A.** 4.91 µM (≈ 15 µg/mL)

**Q.** What about the MIC [44] of the same compound?
**A.** 9.82 µM (≈ 30 µg/mL)
